Experiment [1] concerns the target T1, Glucocorticoid Receptor (GR) (Homo sapiens, UniProt P04150).
T1 construct: purchased Invitrogen P2893
T1 sequence (P04150 1-777): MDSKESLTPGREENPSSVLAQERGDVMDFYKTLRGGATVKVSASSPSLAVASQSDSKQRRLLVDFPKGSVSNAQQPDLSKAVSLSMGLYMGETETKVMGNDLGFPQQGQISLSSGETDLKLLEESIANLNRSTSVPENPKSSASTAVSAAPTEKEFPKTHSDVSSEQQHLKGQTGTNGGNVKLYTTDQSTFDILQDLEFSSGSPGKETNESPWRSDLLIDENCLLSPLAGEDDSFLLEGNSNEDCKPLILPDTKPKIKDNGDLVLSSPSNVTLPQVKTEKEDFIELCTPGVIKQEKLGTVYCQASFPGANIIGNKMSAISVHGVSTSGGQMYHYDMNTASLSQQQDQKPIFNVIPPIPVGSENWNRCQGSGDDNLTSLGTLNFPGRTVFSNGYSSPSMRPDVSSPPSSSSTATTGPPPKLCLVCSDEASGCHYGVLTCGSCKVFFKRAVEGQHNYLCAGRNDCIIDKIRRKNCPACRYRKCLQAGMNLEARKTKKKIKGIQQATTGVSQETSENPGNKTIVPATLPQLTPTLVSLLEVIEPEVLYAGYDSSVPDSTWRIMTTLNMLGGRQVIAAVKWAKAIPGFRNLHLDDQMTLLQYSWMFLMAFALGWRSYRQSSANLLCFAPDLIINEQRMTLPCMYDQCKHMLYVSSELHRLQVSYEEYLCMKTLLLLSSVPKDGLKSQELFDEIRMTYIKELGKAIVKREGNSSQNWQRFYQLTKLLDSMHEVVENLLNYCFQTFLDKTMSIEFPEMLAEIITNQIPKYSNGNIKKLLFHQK
In words: GR Fluorescence Polarization Assay (PolarScreen Glucocorticoid Receptor Competitor Assay, Red). Conditions: fluorescence polarization binding ranges. Put shortly:
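Competitive fluorescence polarization using a red fluorescent glucocorticoid tracer and GR in kit buffer. Compounds in 1:4 DMSO serial dilution, incubated with tracer and receptor overnight at 4° C before polarization read-out.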

The test system of another experiment is IL-6. Kind of experiment: A549 Cell Assay to Measure Inflammation Markers (inhibition of IL-1β-induced IL-6). The format is cell-based. Conditions: A549 cells, read-out: A549 cell assay. Put shortly:
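A549 cells pre-incubated 1 h with compound (10-point dilution, 0.1% DMSO final) in charcoal-stripped serum medium, then stimulated 4 h with 1 ng/mL IL-1β at 37° C. Supernatant IL-6 measured by MSD immunoassay; IC50 and Emax relative to 1 μM prednisolone as 100% inhibition; viability checked by CellTiter-Glo.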

Like-named read-outs stand apart in the source and are kept apart here. Some results are limits rather than exact numbers.

`N#CC[C@@]1(O)CC[C@@]2(CC3CC3)c3cc4cnn(-c5ccc(F)cc5)c4cc3CCC[C@H]2C1` [Example 67]: the IC50 (in experiment [1]; in the experiment with IL-6) was < 100 nM in each case.
Consider `N#CC[C@@]1(O)CC[C@@]2(Cc3ccccn3)c3cc4cnn(-c5ccncc5)c4cc3CCC[C@H]2C1` [Example 68], for which the IC50 (in experiment [1]; with IL-6) was < 100 nM throughout.
Regarding `N#CC[C@]1(O)CC[C@]2(Cc3ccccn3)c3cc4cnn(-c5ccncc5)c4cc3CCC[C@@H]2C1` [Example 69], the IC50 (in experiment [1]; with IL-6) was < 100 nM in each case.
With `CS(=O)(=O)NC[C@@]12CC[C@](O)(C(F)(F)F)C[C@H]1CCCc1cc3c(cnn3-c3ccc(F)cc3)cc12` [Example 74, N-(((3R,4aR,12bS)-9-(4-fluorophenyl)-3-hydroxy-3-(trifluoromethyl)-1,2,3,4,4a,5,6,7,9,12b-decahydrobenzo[6,7]cyclohepta[1,2-f]indazol-12b-yl)methyl)methanesulfonamide], the IC50 (in experiment [1]; with IL-6 (Homo sapiens)) was < 100 nM throughout.
Take `O=S1(=O)CCCN1C[C@@]12CC[C@](O)(C(F)(F)F)C[C@H]1CCCc1cc3c(cnn3-c3ccc(F)cc3)cc12` [Example 75, 2-(((3R,4aR,12bS)-9-(4-fluorophenyl)-3-hydroxy-3-(trifluoromethyl)-1,2,3,4,4a,5,6,7,9,12b-decahydrobenzo[6,7]cyclohepta[1,2-f]indazol-12b-yl)methyl)isothiazolidine 1,1-dioxide]: the IC50 (in experiment [1]; with IL-6 (Homo sapiens)) was < 100 nM in each case.
In the case of `OC[C@@]12CC[C@](O)(C(F)(F)F)C[C@H]1CCCc1cc3c(cnn3-c3ccc(F)cc3)cc12` [Example 78, (3R,4aR,12bS)-9-(4-fluorophenyl)-12b-(hydroxymethyl)-3-(trifluoromethyl)-1,2,3,4,4a,5,6,7,9,12b-decahydrobenzo[6,7]cyclohepta[1,2-f]indazol-3-ol], the IC50 (in experiment [1]; with IL-6 (Homo sapiens)) was < 100 nM throughout.
For `OC[C@]12CC[C@@](O)(C(F)(F)F)C[C@@H]1CCCc1cc3c(cnn3-c3ccc(F)cc3)cc12` [Example 79], the IC50 was < 100 nM in experiment [1] and 100 to 1000 nM in the experiment with IL-6.
Regarding `CC[C@]12CC[C@](O)(C(F)(F)F)C[C@H]1CCCc1c2cc2cnn(-c3ccc(F)cc3)c2c1Br` [Example 92, (3R,4aR,12bS)-8-Bromo-12b-ethyl-9-(4-fluorophenyl)-3-(trifluoromethyl)-1,2,3,4,4a,5,6,7,9,12b-decahydrobenzo[6,7]cyclohepta[1,2-f]indazol-3-ol], the IC50 in experiment [1] is 100 to 1000 nM; in the experiment on IL-6 (Homo sapiens), > 10000 nM.
In the same order, the values of `CC[C@]12CC[C@](O)(C(F)(F)F)C[C@H]1CC=Cc1cc3c(cnn3-c3ccc(F)cc3)cc12` [Example 93, (3R,4aR,12bS)-12b-Ethyl-9-(4-fluorophenyl)-3-(trifluoromethyl)-1,2,3,4,4a,5,9,12b-octahydrobenzo[6,7]cyclohepta[1,2-f]indazol-3-ol] are < 100 nM and > 10000 nM.
`CC[C@@]1(O)CC[C@@]2(Cc3ccccn3)c3cc4cnn(-c5ccc(F)cc5)c4cc3C(=O)CC[C@H]2C1` [Example 94, (3R,4aS,12bS)-3-Ethyl-9-(4-fluorophenyl)-3-hydroxy-12b-(pyridin-2-ylmethyl)-1,2,3,4,4a,5,6,12b-octahydrobenzo[6,7]cyclohepta[1,2-f]indazol-7(9H)-one]: the IC50 (in experiment [1]; in the experiment with IL-6 (Homo sapiens)) was < 100 nM each time.
As for `CC[C@@]12CC[C@](O)(C(F)(F)F)C[C@H]1CCCc1c2cc2cnn(-c3ccc(F)cc3)c2c1Br` [Example 102, (3R,4aR,12bR)-8-Bromo-12b-ethyl-9-(4-fluorophenyl)-3-(trifluoromethyl)-1,2,3,4,4a,5,6,7,9,12b-decahydrobenzo[6,7]cyclohepta[1,2-f]indazol-3-ol], the IC50 (in experiment [1]; in the experiment with IL-6 (Homo sapiens)) was < 100 nM in each case.
Regarding `CC[C@@]12CC[C@](O)(C(F)(F)F)C[C@H]1CCCc1c2cc2cnn(-c3ccc(F)cc3)c2c1C` [Example 103, (3R,4aR,12bR)-12b-Ethyl-9-(4-fluorophenyl)-8-methyl-3-(trifluoromethyl)-1,2,3,4,4a,5,6,7,9,12b-decahydrobenzo[6,7]cyclohepta[1,2-f]indazol-3-ol], the IC50 (in experiment [1]; in the experiment on IL-6 (Homo sapiens)) was < 100 nM throughout.
On to `CC[C@@]12CC[C@](O)(C(F)(F)F)C[C@H]1CCC(=O)c1cc3c(cnn3-c3ccc(F)cc3)cc12` [Example 105, (3R,4aR,12bR)-12b-Ethyl-9-(4-fluorophenyl)-3-hydroxy-3-(trifluoromethyl)-1,2,3,4,4a,5,6,12b-octahydrobenzo[6,7]cyclohepta[1,2-f]indazol-7(9H)-one], for which the IC50 (in experiment [1]; with IL-6 (Homo sapiens)) was < 100 nM in each case.
On to `CC[C@@]12C[C@H](O)[C@@](O)(C(F)(F)F)C[C@H]1CCCc1cc3c(cnn3-c3ccc(F)cc3)cc12` [Example 108, (2S,3R,4aR,12bR)-12b-Ethyl-9-(4-fluorophenyl)-3-(trifluoromethyl)-1,2,3,4,4a,5,6,7,9,12b-decahydrobenzo[6,7]cyclohepta[1,2-f]indazole-2,3-diol], for which the IC50 (in experiment [1]; in the experiment on IL-6 (Homo sapiens)) was < 100 nM each time.
With `CC#C[C@@]1(O)CC[C@@]2(CC)c3cc4cnn(-c5ccc(F)cc5)c4cc3CCC[C@@H]2C1` [Example 111], the IC50 (in experiment [1]; in the experiment with IL-6) was < 100 nM throughout.
As for `CC#C[C@]1(O)CC[C@]2(CC)c3cc4cnn(-c5ccc(F)cc5)c4cc3CCC[C@H]2C1` [Example 112], the figures for the IC50 (in experiment [1]; with IL-6) were 100 to 1000 nM and < 100 nM, respectively.
`CC[C@@]1(O)CC[C@@]2(CC)c3cc4cnn(-c5ccc(F)cc5)c4cc3CCC[C@@H]2C1` [Example 113, (3R,4aR,12bR)-3,12b-Diethyl-9-(4-fluorophenyl)-1,2,3,4,4a,5,6,7,9,12b-decahydrobenzo[6,7]cyclohepta[1,2-f]indazol-3-ol]: the IC50 (in experiment [1]; with IL-6 (Homo sapiens)) was < 100 nM in each case.
As for `CC[C@]1(O)CC[C@]2(CC)c3cc4cnn(-c5ccc(F)cc5)c4cc3CCC[C@H]2C1` [Example 114], the IC50 (in experiment [1]; with IL-6) was 100 to 1000 nM throughout.
With `CC[C@]12CC[C@](O)(CN[C@H](C)c3ccccc3)C[C@@H]1CCCc1cc3c(cnn3-c3ccc(F)cc3)cc12` [Example 125, (3R,4aS,12bS)-12b-ethyl-9-(4-fluorophenyl)-3-((((R)-1-phenylethyl)amino)methyl)-1,2,3,4,4a,5,6,7,9,12b-decahydrobenzo[6,7]cyclohepta[1,2-f]indazol-3-ol], the IC50 in experiment [1] was 100 to 1000 nM; in the experiment on IL-6 (Homo sapiens) it was > 10000 nM.
As for `CC[C@@]12CC[C@@](O)(CN[C@H](C)c3ccccc3)C[C@H]1CCCc1cc3c(cnn3-c3ccc(F)cc3)cc12` [Example 126, (3S,4aR,12bR)-12b-ethyl-9-(4-fluorophenyl)-3-((((R)-1-phenylethyl)amino)methyl)-1,2,3,4,4a,5,6,7,9,12b-decahydrobenzo[6,7]cyclohepta[1,2-f]indazol-3-ol], the IC50 in experiment [1] is < 100 nM; in the experiment on IL-6 (Homo sapiens), > 10000 nM.
Take `CC[C@]12CC[C@@](O)(COC)C[C@H]1CCOc1cc3c(cnn3-c3ccc(F)cc3)cc12` [Example 130]: the IC50 was < 100 nM in experiment [1] and > 10000 nM with IL-6.
As to `CC[C@@]12CC[C@](O)(COC)C[C@@H]1CCOc1cc3c(cnn3-c3ccc(F)cc3)cc12` [Example 131], the IC50 (in experiment [1]; in the experiment on IL-6) was < 100 nM each time.
On to `CC[C@]12CC[C@@](O)(COC)C[C@H]1CCOc1cc3c(cnn3-c3ccncc3)cc12` [Example 133], for which the values for the IC50 (in experiment [1]; in the experiment on IL-6 (Homo sapiens)) were 100 to 1000 nM and > 10000 nM, respectively.
In the same order, the values of `CC[C@@]12CC[C@](O)(COC)C[C@@H]1CCOc1cc3c(cnn3-c3ccncc3)cc12` [Example 134] are < 100 nM and < 100 nM.
Consider `CC[C@@]12CC[C@](O)(COC)C[C@@H]1CCOc1cc3c(cnn3-c3ccnc(OC)c3)cc12` [Example 138], for which the IC50 in experiment [1] is < 100 nM; with IL-6 it was 1000 to 10000 nM.
In the same order, the values of `CC[C@@]12CC[C@](O)(COC)C[C@@H]1CCOc1cc3c(cnn3-c3ccnc(C(F)(F)F)c3)cc12` [Example 141] are < 100 nM and 1000 to 10000 nM.
For `CC[C@@]12CC[C@@](C)(O)C[C@@H]1CCOc1cc3c(cnn3-c3ccnc(C)c3)cc12` [Example 143], the IC50 (in experiment [1]; in the experiment with IL-6 (Homo sapiens)) was < 100 nM each time.
Regarding `CC[C@@]12CC[C@](O)(CC#N)C[C@@H]1CCOc1cc3c(cnn3-c3ccnc(C)c3)cc12` [Example 145], the IC50 (in experiment [1]; in the experiment on IL-6 (Homo sapiens)) was < 100 nM each time.

The values are drawn from US9193744B2, “Heterocyclic nuclear hormone receptor modulators” (AbbVie Inc., priority 2012, dated 2015).
